# Measured values reported in patent US20190322638A1, “DIPYRIDYL ALKALOID, PREPARATION METHOD THEREFOR AND USE THEREOF” (OCEAN UNIVERSITY OF CHINA, priority 2016, published 2019).
# Like-named read-outs stand apart in the source and are kept apart here.
# Key:
# [1] = system: colon cancer HCT-116 transplantation tumors; experiment: In vivo antitumor test on transplantation tumors in nude mice; design: species or system BALB/C (nu/nu) nude mice; details: HCT-116, 14 days, Docetaxel 5 mg/kg intravenously every other day, Compound 2 7.5 mg/kg intraperitoneally daily; for Tumor Weight: X ± S; for Inhibition Rate % (tumor inhibition rate): vs negative control
# Method: An in vivo antitumor test for Compound 2 was conducted on in vivo transplantation tumors from nude mice experiencing colon cancer HCT-116.
# Laboratory mice: BALB/C, (nu/nu) nude mice, from 18 to 20 g in weight, male; purchased from BEIJING HFK BIOSCIENCE Co., LTD.; License No.: SCXK (Jing)-2014-0004.
# Positive drug: Docetaxel, dissolved with Tween DMSO as a solvent and formulated into 9 mg/mL solution for service; diluted with normal saline.
# Test drug: Compound 2, 10 mg/mL of stock solution being dissolved with DMSO, diluted with normal saline till the concentration was 0.75 mg/mL, and the administration volume was 0.1 mL/10 g body weight.
# (§1) A cell suspension of human colon cancer cell line HCT-116 at a concentration of 30 million/mL was formulated in a 5 A medium containing 10% fetal bovine serum. After conventional disinfection, the cell suspension was inoculated subcutaneously into the armpits of the right forelimbs of the mice at a dose of 0.2 ml for each. The mice were not administered until the tumors had grown to an average volume of about 100 mm^3. Positive drugs, compounds, and negative control groups were arranged. The dosages were 5 mg/kg of Docetaxel (positive), and 7.5 mg/kg of Compound 2. Routes of administration were as follows: Docetaxel was intravenously administered every other day; Compound 2 was intraperitoneally injected daily; the negative control group was intraperitoneally injected with isometric normal saline. The mice were administered for 14 days, during which the mice were weighed daily and the variation trends of body weights of the mice were calculated. The mice were killed 24 hours after the last administration. Their tumor tissues were dissected, the tumor mass was weighed, and the tumor inhibition rate was calculated. The equation for calculating the tumor inhibition rate was as follows: […]
# (§2) Statistical analysis: The SPSS 13.0 statistical software was used for data processing. The resulting data were marked with X±S. The data from each group were analyzed by t test, and the P value was used to indicate difference between groups.
# [2] = Spleen index, body weight and behavioral observation of mice in the in vivo antitumor test; design: species or system BALB/C (nu/nu) nude mice; details: nude mice; for effect on body weight of the mice / effect on spleen index of mice (in words): 14 days administration; for Spleen Index (100 × spleen mass/body mass): 14 days, Docetaxel (10 mg/kg as printed in Table 11), Compound 2 7.5 mg/kg
# Method: as §1, with “The dosages were 5 mg/kg of Docetaxel (positive), and 7.5 mg/kg of Compound 2.” left out
# In the meantime, the spleens were removed from the mice, and the capsules were peeled off. The mass of the spleens of the mice was recorded respectively, and the spleen indices were calculated by the following equation:
# spleen index=100×spleen mass/body mass.
# as §2
# [3] = Toxicity to normal cells, MTT method; format: cell-based; details: human, L-02 cell line
# Method: (§3) Cell lines and subculture of cells: The following five tumor cell lines were used for activity test human colon cancer cell lines (HCT-116 cells), human hepatoma cell lines (HepG2 cells), human breast cancer cell lines (MCF-7 cells), cervical cancer cell lines (Hela cells), human peripheral blood leukemia T cell lines (Jurkat cells), and human normal liver cell lines (L-02 cells), of which MCF-7, HepG2, Hela, and L-02 cell lines were tested using the MTT model; HCT-116 cell lines were tested using the SRB model. All of the cells were subcultured in a 10% FBS-containing RPMI-1640 medium in an incubator charged with 5% carbon dioxide at 37° C.
# (§4) MTT method: Dehydrogenase in mitochondria in live cells was capable of metabolizing yellow bromized 3-(4,5-dimethylthiazole)-2,5-diphenyltetrazolium into ianthinus water-insoluble formazan, and an amount of formazan could be determined by measuring the absorbance thereof with a microplate reader. Since the amount of formazan was directly proportional to the number of live cells, the number of live cells could be determined from the absorbance to learn about the drug's capability of inhibiting or killing tumor cells. […] The cell suspension was inoculated to a 96-well plate at 100 μL per well, and cultured at 37° C. for 24 hours. Thereafter, 100 μL of the sample solutions at different concentrations were added to respective wells and continued to be cultured for 72 hours. Then, 20 μL of MTT-containing IPMI-1640 solution ([…]) was added. After further cultivation for 4 hours, the culture solutions were slowly decanted and 150 μL of DMSO was added to dissolve the formazan, and the absorbance was measured at a wavelength of 540 nm. […] The half inhibitory concentration against cancer cells (IC50) and the half inhibitory concentration against normal cells (CC50) were determined.
# [4] = system: human colon cancer cell lines (HCT-116 cells); experiment: In vitro antitumor activity, SRB method; format: cell-based; details: for SI = CC50 (normal cell line L-02)/IC50 (tumor cell line): HCT-116 cell line vs L-02; for IC50: Homo sapiens, read-out: Cytotoxic Activity IC50
# Method: as §3
# SRB method: According to the cell growth rate, tumor cells at the logarithmic phase (medium: RPMI-1640 medium containing 10% newborn fetal bovine serum (FBS); cell density: 3×10^4 cells/mL) were inoculated into a 96-well culture plate at 180 μL/well, and subjected to adherent growth for 24 hours at 37° C. under 5% CO2. Subsequently, a test sample was added at 20 μL/well, and four duplicated wells were provided at each concentration. […] The culture solution was decanted, and the cells were fixed with 10% cold trichloroacetic acid (TCA), allowed to stand at 4° C. for 1 hour, and then washed 5 times with distilled water and dried in the air. Thereafter, 100 μL/well of a 4 mg/ml solution of sulforhodamine B (SRB, Sigma) formulated by 1% glacial acetic acid was added, and the mixture was stained at a room temperature for 15 minutes, and the supernatant was removed, washed 5 times with 1% acetic acid, and dried in the air. Finally, 150 μL/well of Tris solution was added, and the absorbance (OD value) was measured with a microplate reader at a wavelength of 540 nm. […] The half inhibitory concentration against cancer cells (IC50) was determined.
# (§5) Selection Index (SI) is the ratio of the CC50 value of a test sample inhibiting the growth of normal cell lines to the IC50 value of the test sample inhibiting tumor cell proliferation, which reflects the selectivity and safety of the sample.
# (§6) SI=CC50(normal cell line L-02)/IC50(tumor cell line) Equation: […]
# [5] = system: cervical cancer cell lines (Hela cells); experiment: In vitro antitumor activity, MTT method; format: cell-based; details: for SI = CC50 (normal cell line L-02)/IC50 (tumor cell line): Hela cell line vs L-02; for IC50: Homo sapiens, read-out: Cytotoxic Activity IC50
# Method: as §3, §4, §5, §6
# [6] = system: human hepatoma cell lines (HepG2 cells); experiment: In vitro antitumor activity, MTT method; format: cell-based; details: for SI = CC50 (normal cell line L-02)/IC50 (tumor cell line): HepG2 cell line vs L-02; for IC50: Homo sapiens, read-out: Cytotoxic Activity IC50
# Method: as §3, §4, §5, §6
# [7] = system: human peripheral blood leukemia T cell lines (Jurkat cells); experiment: In vitro antitumor activity, Jurkat cells; format: cell-based; details: for IC50: Homo sapiens, read-out: Cytotoxic Activity IC50; for SI = CC50 (normal cell line L-02)/IC50 (tumor cell line): Jurkat cell line vs L-02
# Method: as §3, §5, §6
# [8] = system: human breast cancer cell lines (MCF-7 cells); experiment: In vitro antitumor activity, MTT method; format: cell-based; details: for IC50: Homo sapiens, read-out: Cytotoxic Activity IC50; for SI = CC50 (normal cell line L-02)/IC50 (tumor cell line): MCF-7 cell line vs L-02
# Method: as §3, §4, §5, §6
# [9] = HCT-116 cell line, SRB, 72 hours
SMILES,CC50 at 72 h ([3]; L-02 normal liver cells) [µM],SI = CC50 (normal cell line L-02)/IC50 (tumor cell line) [4],"IC50 [4, 9] [µM]",SI = CC50 (normal cell line L-02)/IC50 (tumor cell line) [5],"IC50 ([5]; Hela cell line, MTT, 72 hours) [µM]",SI = CC50 (normal cell line L-02)/IC50 (tumor cell line) [6],IC50 ([7]; Jurkat cell line) [µM],SI = CC50 (normal cell line L-02)/IC50 (tumor cell line) [7],other results
"CC(=O)O[C@@]12CO[C@@H]1C[C@H](O)[C@@]1(C)C(=O)[C@H](O)C3=C(C)[C@@H](OC(=O)[C@H](O)[C@@H](NC(=O)OC(C)(C)C)c4ccccc4)C[C@@](O)([C@@H](OC(=O)c4ccccc4)[C@H]21)C3(C)C [Docetaxel, reference compound]",–,–,–,–,–,–,–,–,Tumor Weight [1]: 0.13 ± 0.07 g; Inhibition Rate % (tumor inhibition rate) [1]: 87.39%; effect on body weight of the mice [2]: decreased; effect on spleen index of mice (in words) [2]: decreased; Spleen Index (100 × spleen mass/body mass) [2]: 0.25 ± 0.11
C[C@H]1O[C@H](Oc2cc(/C=N/O)nc(-c3ccccn3)c2)[C@H](O)[C@@H](O)[C@@H]1O [Compound 7],59.5,27.0,2.2,23.8,2.5,6.0,1.3,45.8,"IC50 ([6]; HepG2 cell line, MTT, 72 hours): 10 µM"
COc1cc(C=O)nc(-c2ccccn2)c1 [Compound 6],31.4,5.2,6,1.6,19.3,–,14.5,2.2,"IC50 ([8]; MCF7, MCF-7 cell line, MTT, 72 hours): 12 µM; SI = CC50 (normal cell line L-02)/IC50 (tumor cell line) [8]: 2.6"
C[C@@H]1O[C@@H](Oc2cc(/C=N/O)nc(-c3ccccn3)c2)[C@H](O)[C@H](O)[C@H]1O [Compound 1],28.3,40.4,0.7,3.1,9,10.5,10.8,2.6,"IC50 ([6]; HepG2 cell line, MTT, 72 hours): 2.7 µM"
COc1cc(/C=N/O)nc(-c2ccccn2)c1O [Compound 4],–,1.2,–,–,–,–,–,–,"CC50 at 72 h [3]: 1.7 µM; IC50 ([4]; HCT-116, 72 h): 1.4 µM"
COc1cc(/C=N/O)nc(-c2ccc(F)cn2)c1 [Compound 5],7.5,–,–,1.7,4.4,–,–,–,–
COc1cc(/C=N/O)nc(-c2ccccn2)c1 [Compound 2],–,13.0,–,39,–,19.5,–,19.5,"CC50 at 72 h [3]: 3.9 µM; IC50 ([4]; HCT-116, 72 h): 0.3 µM; IC50 ([5]; HeLa, 72 h): 0.1 µM; IC50 ([8]; MCF7, 72 h): 1 µM; SI = CC50 (normal cell line L-02)/IC50 (tumor cell line) [8]: 3.9; IC50 ([6]; HepG2, 72 h): 0.2 µM; IC50 ([7]; Jurkat): 0.2 µM; Tumor Weight [1]: 0.59 ± 0.33 g; Inhibition Rate % (tumor inhibition rate) [1]: 42.46%; effect on body weight of the mice [2]: not adversely affected; effect on spleen index of mice (in words) [2]: no effect; Spleen Index (100 × spleen mass/body mass) [2]: 0.45 ± 0.09; behavioral observation: adverse effects ([2]; within 14 days after administration, 7.5 mg/kg intraperitoneally daily): no obvious adverse effects such as allergy were observed"
